Results reported in article PMC4999502, “A rheostat mechanism governs the bifurcation of carbon flux in mycobacteria” (Nature Communications, 2016).

Key:
[1] = target: T1, M. smegmatis ICD (MsmICD) (Mycolicibacterium smegmatis, UniProt A0QSZ3); test: isothermal titration calorimetry; assay type: binding; conditions: pH 7.5, 25 °C, 10 mM Tris, 10 mM EDTA, 2.5 mM MgCl2; putative allosteric activator; 1:1 single-site fit
T1 construct: gene MSMEG_1654; full ORF, 743 AA; pET-28a(+), C-terminal TEV site and 6-His tag, tag removed by TEV; E. coli BL21(DE3); text says mycobacterial ICD2 forms dimers in solution
Text: isothermal titration calorimetry on M. smegmatis ICD (MsmICD)

[2] = target: T1, M. smegmatis ICD (MsmICD); test: X-ray crystal structure, […] Å; assay type: binding; conditions: Mn2+ bound; crystals pre-incubated with glyoxylate, MnCl2, isocitrate and NADP+; pH 7.5

## O=CC(=O)O [glyoxylate]
[1]
  K (M^-1): 1.10e^6±4.21e^5

## O=C(O)C[C@H](C(=O)O)[C@@H](O)C(=O)O (racemic) [isocitrate]
[2]
  X-ray crystal structure, 2.8 Å: We determined the structure of MsmICD bound to isocitrate and manganese
